Test results taken from patent publication US20090246880A1, “Method for preventing degradation of diacetylpolyamine” (priority 2008, published 2009).

Procedure: The present invention will next be described in detail by way of examples, which should not be construed as limiting the invention thereto. The percent degradation of diacetylspermine (%) in a sample was calculated on the basis of the amount of diacetylspermine as determined through ELISA. […] Subsequently, the pH of the mixture was adjusted with 50 mM phosphate buffer to 5.5, 6.0, 6.5, 7.0, 7.5, or 8.0. Thereafter, the reaction mixture was incubated at 37° C. for two hours. […] Subsequently, the ratio of the amount of diacetylspermine degraded through incubation to the initial amount of diacetylspermine was calculated.

degradation of diacetylspermine (in words): prevented
Structure (SMILES): CC(=O)NCCCNCCCCNCCCNC(C)=O [diacetylspermine]
